Data published in patent US20260001928A1 (CORTERIA PHARMACEUTICALS, priority 2022, published 2026).
*1 amine or outer side, *2 acyl side, *3 side chain or, on linkers, in order; H or OH if unused. Where a SMILES comes first, the peptide text is derived from it. Side-chain parts run from the residue outwards. [ ]: non-standard residue; d: D form. The star is where a group is joined. C18 diacid = O=C(O)CCCCCCCCCCCCCCCCC(=O)*; C16 diacid = O=C(O)CCCCCCCCCCCCCCC(=O)*; γGlu = O=C(O)[C@H](CCC(=O)[*:2])N[*:1]; NMeI = CC[C@H](C)[C@H](NC)C(=O)O; αMeL = CC(C)C[C@](C)(N)C(=O)O; NMeV = CN[C@H](C(=O)O)C(C)C; Abu = CC[C@H](N)C(=O)O; Pentanoyl = CCCCC(=O)*; Ac3c = NC1(C(=O)O)CC1; Aib = CC(C)(N)C(=O)O

Key:
human CRF2a receptor = biological target: T1, human CRF2a receptor (Homo sapiens, UniProt Q13324); assay: Activity at human CRF2a receptor, cAMP functional assay in TeloHEAC cells; format: cell-based; conditions: TeloHEAC cells stably expressing human CRF2a receptor, relative to urocortin 2 (100 nM = 100%)
T1 construct: expressed in transfected cells; host or cells: TeloHEAC cells
T1 sequence (Q13324 1-411): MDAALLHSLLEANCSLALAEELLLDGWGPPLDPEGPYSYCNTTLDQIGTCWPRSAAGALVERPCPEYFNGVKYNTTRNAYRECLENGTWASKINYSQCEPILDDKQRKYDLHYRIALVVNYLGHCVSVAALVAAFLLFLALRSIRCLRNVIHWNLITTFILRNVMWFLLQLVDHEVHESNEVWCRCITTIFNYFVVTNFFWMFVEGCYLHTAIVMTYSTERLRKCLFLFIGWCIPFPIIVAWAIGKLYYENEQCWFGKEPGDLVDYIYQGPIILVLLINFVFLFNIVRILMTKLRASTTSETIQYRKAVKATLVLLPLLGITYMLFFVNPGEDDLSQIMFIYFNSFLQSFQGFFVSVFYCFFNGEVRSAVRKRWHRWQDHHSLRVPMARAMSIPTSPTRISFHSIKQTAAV
Method: Agonism of compounds for human corticotropin-releasing factor 2a (CRF2a receptor) was determined by a functional assay measuring cAMP modulation upon treatment of TeloHEAC cells stably expressing human CRF2a receptor. Compounds were dissolved at 0.5 mM in 100% DMSO and serially diluted (1:2) in 100% DMSO for 16 dilutions. 20 nL of each dilution was then transferred to 384-well assay plate using an acoustic droplet ejection instrument. 5 μL of compound buffer (1×HBSS; 20 mM HEPES,) were then added to each well. Prior to use, frozen cells were thawed quickly at 37° C. and washed (5 min at 900 rpm) with 20 mL cell buffer (1×HBSS; 20 mM HEPES). Cells were resuspended in cell buffer added with 2 mM IBMX and adjusted to a cell density of […]. 5 μL cells (final dell density: 10000 cells/well) were dispensed in the compound-containing 384-well assay plate and incubated for 30 minutes 37° C. The cAMP level in treated cells was determined using the Cisbio 62AM4PEC kit according to manufacturer's instruction. Finally, plates were incubated for 1 h at room temperature before measuring the fluorescence ratio between 665/620 nm. The percent activity value (E %) was calculated by setting 100 nM of urocortin 2 (UCN2) as 100%. The in vitro potency of the compounds was quantified by determining the concentrations that caused 50% activation of maximal response (EC50) relative to urocortin 2.

CFR1R receptor = biological target: T2, CFR1R receptor (Homo sapiens, UniProt P34998); assay: Activity at anti-target CFR1R receptor, cAMP assay in CRF1R-overexpression CHO-K1 cells; format: cell-based; conditions: 100% = Sauvagine at 100 nM; for EC50: cAMP
T2 construct: host or cells: CHO-K1 (clone 2)
T2 sequence (P34998 24-415): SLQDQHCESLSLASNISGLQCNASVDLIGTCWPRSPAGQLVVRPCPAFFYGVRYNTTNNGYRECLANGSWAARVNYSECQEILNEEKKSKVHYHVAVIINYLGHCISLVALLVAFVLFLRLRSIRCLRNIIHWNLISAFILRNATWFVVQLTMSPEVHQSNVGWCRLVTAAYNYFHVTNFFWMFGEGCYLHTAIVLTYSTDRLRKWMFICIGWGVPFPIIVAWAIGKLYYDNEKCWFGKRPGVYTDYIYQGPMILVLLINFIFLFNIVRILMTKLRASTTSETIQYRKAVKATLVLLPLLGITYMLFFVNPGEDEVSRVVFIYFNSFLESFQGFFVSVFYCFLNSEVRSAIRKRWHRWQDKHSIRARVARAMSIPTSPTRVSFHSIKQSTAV
Procedure, shortened: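 cAMP readout in CRF1R-overexpressing CHO-K1 cells (clone 2), run as for the TeloHAEC assay at 4000 cells/well final. Cells came from cryopreserved banks. Sauvagine at 100 nM defined 100% activation.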

Structure (SMILES)	EC50 (human CRF2a receptor) [nM]	Emax (% I) (CFR1R receptor)	EC50 (CFR1R receptor) [nM]
CC[C@H](NC(=O)[C@H](CC(N)=O)NC(=O)[C@@H](NC(=O)[C@H](CCC(=O)O)NC(=O)[C@H](C)NC(=O)[C@H](CCC(N)=O)NC(=O)[C@H](CCC(=O)O)NC(=O)[C@H](CCCNC(=N)N)NC(=O)[C@H](CCC(N)=O)NC(=O)[C@H](CCCCN)NC(=O)[C@H](CCCCN)NC(=O)[C@H](CCC(N)=O)NC(=O)[C@H](CCCCN)NC(=O)[C@H](CCC(=O)O)NC(=O)[C@H](CCC(N)=O)NC(=O)[C@H](CCC(=O)O)NC(=O)[C@H](CC(C)C)NC(=O)[C@H](CC(C)C)NC(=O)[C@@H](NC(=O)[C@H](CCCCN)NC(=O)[C@H](CCCCNC(=O)CC[C@H](NC(=O)CCCCCCCCCCCCCCC(=O)O)C(=O)O)NC(=O)[C@H](CC(C)C)NC(=O)[C@H](CCCCN)NC(=O)[C@@H](NC(=O)[C@@H]1CCCN1C(=O)[C@H](NC(=O)[C@H](CC(=O)O)NC(=O)[C@H](CC(C)C)NC(=O)[C@H](CO)NC(=O)[C@H](CC(C)C)NC(=O)[C@@H](NC(=O)[C@@H](NC)[C@@H](C)CC)C(C)C)C(C)C)[C@@H](C)CC)[C@@H](C)CC)[C@@H](C)O)C(=O)N[C@@H](CCC(N)=O)C(=O)N[C@H](C(=O)N[C@@H](CC(C)C)C(=O)N[C@@H](C)C(=O)N[C@@H](CCC(N)=O)C(=O)N[C@H](C(N)=O)C(C)C)[C@@H](C)CC [compound 69] (H-[NMeI]VLSLD[dV]PIKLK([γGlu-C16 diacid])KILLEQEKQKKQREQAETN[Abu]QILAQV-NH2)	0.09	3	> 250
CC[C@H](C)[C@H](N)C(=O)N[C@H](C(=O)N[C@@H](CC(C)C)C(=O)N[C@@H](CO)C(=O)N[C@@H](CC(C)C)C(=O)N[C@@H](CC(=O)O)C(=O)N[C@H](C(=O)N1CCC[C@H]1C(=O)N[C@H](C(=O)N[C@@H](CCCCN)C(=O)N[C@@](C)(CC(C)C)C(=O)N[C@@H](CCCCNC(=O)CC[C@H](NC(=O)CCCCCCCCCCCCCCC(=O)O)C(=O)O)C(=O)N[C@@H](CCCCN)C(=O)N[C@H](C(=O)N[C@@H](CC(C)C)C(=O)N[C@@H](CC(C)C)C(=O)N[C@@H](CCC(=O)O)C(=O)N[C@@H](CCC(N)=O)C(=O)N[C@@H](CCC(=O)O)C(=O)N[C@@H](CCCCN)C(=O)N[C@@H](CCC(N)=O)C(=O)N[C@@H](CCCCN)C(=O)N[C@@H](CCCCN)C(=O)N[C@@H](CCC(N)=O)C(=O)N[C@@H](CCCNC(=N)N)C(=O)N[C@@H](CCC(=O)O)C(=O)N[C@@H](CCC(N)=O)C(=O)N[C@@H](C)C(=O)N[C@@H](CCC(=O)O)C(=O)N[C@H](C(=O)N[C@@H](CC(N)=O)C(=O)NC(C)(C)C(=O)N[C@@H](CCC(N)=O)C(=O)N[C@H](C(=O)N[C@@H](CC(C)C)C(=O)N[C@@H](C)C(=O)N[C@@H](CCC(N)=O)C(=O)N[C@H](C(N)=O)C(C)C)[C@@H](C)CC)[C@@H](C)O)[C@@H](C)CC)[C@@H](C)CC)C(C)C)C(C)C [compound 38] (H-IVLSLDVPIK[αMeL]K([γGlu-C16 diacid])KILLEQEKQKKQREQAETN[Aib]QILAQV-NH2)	0.49	6	> 250
CC[C@H](C)[C@H](NC(C)=O)C(=O)N[C@H](C(=O)N[C@@H](CC(C)C)C(=O)N[C@@H](CO)C(=O)N[C@@H](CC(C)C)C(=O)N[C@@H](CC(=O)O)C(=O)N[C@@H](C(=O)N1CCC[C@H]1C(=O)N[C@H](C(=O)N[C@@H](CCCCN)C(=O)N[C@@H](CC(C)C)C(=O)N[C@@H](CCCCNC(=O)CC[C@H](NC(=O)CCCCCCCCCCCCCCC(=O)O)C(=O)O)C(=O)N[C@@H](CCCCN)C(=O)N[C@H](C(=O)N[C@@H](CC(C)C)C(=O)N[C@@H](CC(C)C)C(=O)N[C@@H](CCC(=O)O)C(=O)N[C@@H](CCC(N)=O)C(=O)N[C@@H](CCC(=O)O)C(=O)N[C@@H](CCCCN)C(=O)N[C@@H](CCC(N)=O)C(=O)N[C@@H](CCCCN)C(=O)N[C@@H](CCCCN)C(=O)N[C@@H](CCC(N)=O)C(=O)N[C@@H](CCCNC(=N)N)C(=O)N[C@@H](CCC(=O)O)C(=O)N[C@@H](CCC(N)=O)C(=O)N[C@@H](C)C(=O)N[C@@H](CCC(=O)O)C(=O)N[C@H](C(=O)N[C@@H](CC(N)=O)C(=O)NC1(C(=O)N[C@@H](CCC(N)=O)C(=O)N[C@H](C(=O)N[C@@H](CC(C)C)C(=O)N[C@@H](C)C(=O)N[C@@H](CCC(N)=O)C(=O)N[C@H](C(N)=O)C(C)C)[C@@H](C)CC)CC1)[C@@H](C)O)[C@@H](C)CC)[C@@H](C)CC)C(C)C)C(C)C [compound 61] (Ac-IVLSLD[dV]PIKLK([γGlu-C16 diacid])KILLEQEKQKKQREQAETN[Ac3c]QILAQV-NH2)	0.36	3	> 250
CCCCC(=O)N[C@H](C(=O)N[C@@H](CC(C)C)C(=O)N[C@@H](CO)C(=O)N[C@@H](CC(C)C)C(=O)N[C@@H](CC(=O)O)C(=O)N[C@@H](C(=O)N1CCC[C@H]1C(=O)N[C@H](C(=O)NCC(=O)N[C@@H](CC(C)C)C(=O)N[C@@H](CCCCNC(=O)CC[C@H](NC(=O)CCCCCCCCCCCCCCCCC(=O)O)C(=O)O)C(=O)N[C@@H](CCCCN)C(=O)N[C@H](C(=O)N[C@@H](CC(C)C)C(=O)N[C@@H](CC(C)C)C(=O)N[C@@H](CCC(=O)O)C(=O)N[C@@H](CCC(N)=O)C(=O)N[C@@H](CCC(=O)O)C(=O)N[C@@H](CCCCN)C(=O)N[C@@H](CCC(N)=O)C(=O)N[C@@H](CCCCN)C(=O)N[C@@H](CCCCN)C(=O)N[C@@H](CCC(N)=O)C(=O)N[C@@H](CCCNC(=N)N)C(=O)N[C@@H](CCC(=O)O)C(=O)N[C@@H](CCC(N)=O)C(=O)N[C@@H](C)C(=O)N[C@@H](CCC(=O)O)C(=O)N[C@H](C(=O)N[C@@H](CC(N)=O)C(=O)NC(C)(C)C(=O)N[C@@H](CCC(N)=O)C(=O)N[C@H](C(=O)N[C@@H](CC(C)C)C(=O)N[C@@H](C)C(=O)N[C@@H](CCC(N)=O)C(=O)N[C@H](C(N)=O)C(C)C)[C@@H](C)CC)[C@@H](C)O)[C@@H](C)CC)[C@@H](C)CC)C(C)C)C(C)C [compound 195] (Pentanoyl-VLSLD[dV]PIGLK([γGlu-C18 diacid])KILLEQEKQKKQREQAETN[Aib]QILAQV-NH2)	0.21	42	
CC[C@H](C)[C@H](NC(=O)[C@H](CCC(N)=O)NC(=O)C(C)(C)NC(=O)[C@H](CC(N)=O)NC(=O)[C@@H](NC(=O)[C@H](CCC(=O)O)NC(=O)[C@H](C)NC(=O)[C@H](CCC(N)=O)NC(=O)[C@H](CCC(=O)O)NC(=O)[C@H](CCCNC(=N)N)NC(=O)[C@H](CCC(N)=O)NC(=O)[C@H](CCCCN)NC(=O)[C@H](CCCCN)NC(=O)[C@H](CCC(N)=O)NC(=O)[C@H](CCCCN)NC(=O)[C@H](CCC(=O)O)NC(=O)[C@H](CCC(N)=O)NC(=O)[C@H](CCC(=O)O)NC(=O)[C@H](CC(C)C)NC(=O)[C@H](CC(C)C)NC(=O)[C@@H](NC(=O)[C@H](CCCCN)NC(=O)[C@H](CCCCNC(=O)CC[C@H](NC(=O)CCCCCCCCCCCCCCC(=O)O)C(=O)O)NC(=O)[C@H](CC(C)C)NC(=O)[C@H](CCCCN)NC(=O)[C@@H](NC(=O)[C@@H]1CCCN1C(=O)[C@H](NC(=O)[C@H](CC(=O)O)NC(=O)[C@H](CC(C)C)NC(=O)[C@H](CO)NC(=O)[C@H](CC(C)C)NC(=O)[C@@H](NC)C(C)C)C(C)C)[C@@H](C)CC)[C@@H](C)CC)[C@@H](C)O)C(=O)N[C@@H](CC(C)C)C(=O)N[C@@H](C)C(=O)N[C@@H](CCC(N)=O)C(=O)N[C@H](C(N)=O)C(C)C [compound 159] (H-[NMeV]LSLD[dV]PIKLK([γGlu-C16 diacid])KILLEQEKQKKQREQAETN[Aib]QILAQV-NH2)	2.97	4	> 250
